In patent publication US11446263B2, “Caspase inhibitor-containing drug for treating or preventing disorders caused by TGF-β, and applications thereof” (The Doshisha, priority 2015, dated 2022):

Tests used:
[1] = test system: immobilized Fuchs' endothelial corneal dystrophy patient derived cells (iFECD); assay: Cell damage in iFECD due to TGF-β2, phase difference microscope (Example 9); type: cell-based, human; details: TGF-β2 10 ng/mL, inhibitor 10 μM, 24 hours
Protocol: 1.2×10^5 iFECDs were seeded on a 12-well plate coated without coating and were cultured for 24 hours under the condition of 5% CO2 at 37° C. Dulbecco's Modified Eagle Medium (nacalai tesque, 26252-94)+10% FBS (Biological Industries/04-001-1A)+1% Penicillin-Streptomycin (nacalai tesque, 26252-94) was used as the medium.
After 24 hours from seeding, each inhibitor was added at a concentration of 10 μM and the cells were incubated for 24 hours under the condition of 5% CO2 at 37° C. The medium was exchanged for the control group and the TGF-β2 group. DMEM+2% FBS+1% P/S was used as the medium.
SB431542 (Wako Pure Chemical Industries, Ltd./192-16541); Z-VAD-FMK (Peptide Institute/3188-v); Z-VD-FMK (isomer mixture) (Wako Pure Chemical Industries, Ltd./262-02061); and emricasan (CHEMSCENE, LLC/CS-0599).
Next, TGF-β2 (manufacturer: R&D Systems, Inc., distributor: Wako Pure Chemical Industries, Ltd./manufacturer codes 302-B2-002, 302-B2-010, distributor codes: 553-62881, 5-59-62883) (10 ng/mL) alone, or both TGF-β2 (10 ng/mL) and each inhibitor (10 μM) were added. After 24 hours, cell morphology and programmed cell death were observed using a phase difference microscope.

[2] = test system: fibronectin; assay: Fibronectin production due to TGF-β2 in iFECD, immunostaining and western blot (Example 17); type: cell-based, human; details: TGF-β2 10 ng/mL, inhibitor 10 μM, 24 hours
Protocol: Round glass was placed on a 24-well plate, disinfected for 5 minutes with ethanol, and coated with laminin-511 E8 Fragment. Then, iFECDs were seeded at 4.0×10^5 each and cultured at 37° C. (5% CO2) until reaching 60 to 70% confluence. Dulbecco's Modified Eagle Medium (DMEM, nacalai tesque, 08456-36)+10% FBS (Thermo Fisher Scientific, S1820-500)+1% penicillin-streptomycin (nacalai tesque, 26252-94) was used as the medium. SB431542 (Wako Pure Chemical Industries, Ltd./192-16541), Z-VD-FMK (isomer mixture) (Wako Pure Chemical Industries, Ltd./262-02061), and emricasan (CHEMSCENE, LLC/CS-0599) were then added at a concentration of 10 μM, and the cells were incubated for 24 hours. The medium was exchanged in the control group and the TFG-β2 supplemented group. DMEM+2% FBS+1% P/S was used as the medium. TGF-β2 alone (10 ng/mL), or both TGF-β2 (10 ng/mL) and each inhibitor (10 μM) were then added. After 24 hours, immunostaining was performed by the following method.
Cells after 24 hours form stimulation were washed with PBS (−) and immobilized with 4% PFA for 10 minutes at room temperature. 0.5% Triton was used for 5 minutes for permeation treatment, and 1% BSA was used for blocking for 1 hour. […] A confocal microscope (Leica Microsystems CMS GmcH Am Friendensplatz 3 68165 Mannheim, Germany) was used to observe fluorescence. […]

[3] = test system: p-Smad2; assay: p-Smad2 western blot in iFECD with TGF-β2 (Example 17); type: cell-based, human; details: TGF-β2 10 ng/mL, inhibitor 10 μM, 24 hours
Protocol: IFECDs were seeded at 1.0×10^5 each on a 12-well plate and cultured at 37° C. (5% CO2) until reaching 60 to 70% confluence. Dulbecco's Modified Eagle Medium (DMEM, nacalai tesque, 08456-36)+10% FBS (Thermo Fisher Scientific, S1820-500)+1% penicillin-streptomycin (nacalai tesque, 26252-94) was used as the medium. SB431542 (Wako Pure Chemical Industries, Ltd./192-16541), Z-VD-FMK (isomer mixture) (Wako Pure Chemical Industries, Ltd./262-02061), and emricasan (CHEMSCENE, LLC/CS-0599) were then added at a concentration of 10 μM, and the cells were incubated for 24 hours. The medium was exchanged in the control group and the TFG-β2 supplemented group. DMEM+2% FBS+1% P/S was used as the medium. TGF-β2 alone (10 ng/mL), or both TGF-β2 (10 ng/mL) and each inhibitor (10 μm) were added. After 24 hours, proteins were collected by the following method.
The medium was collected on ice to collect free and dead cells. The solution from washing the cells twice with 1×PBS (−) was also collected, and was centrifuged at 4° C. at 800×g for 15 minutes. The supernatant was discarded to obtain precipitates. […]
Chemi Lumi ONE Ultra (nacalai tesque, 11644-40) was used for detection. The detected band strength was analyzed with Amersham™ Imager 600 (GE Healthcare).

[4] = test system: caspase 3; assay: Western blot of caspase 3 after UV irradiation (Example 2); type: cell-based, monkey; details: UV 100 J/m^2, 9 hours
Protocol: 1×10^5 cultured monkey corneal endothelial cells were seeded on a 12-well plate coated with FNC Coating Mix and were cultured until reaching confluence under the condition of 5% CO2 at 37° C. Dulbecco's Modified Eagle Medium (DMEM) (Gibco, 12320-032)+10% FBS+1% Penicillin-Streptomycin (nacalai tesque, 26252-94) was used as the medium.
Each inhibitor was added at the above concentration. The cells were incubated for 18 hours under the condition of 5% CO2 at 37° C. The control group and the UV irradiation group were supplemented with a solvent of each reagent, i.e., DMSO (Dimethyl Sulfoxide, Sterile-filtered) (nacalai tesque, 13408-64). Gibco DMEM+1% P/S (penicillin-streptomycin mixture) was used as the medium.
The cell supernatant was then removed, and the cells were irradiated with UV (100 J/m^2). After irradiation, media containing each inhibitor were added to the cells again. The cells were cultured for 9 hours.
The cell morphology was observed under a phase difference microscope. After observation, western blot was performed on proteins by the following procedure.
The medium was collected on ice to collect free and dead cells. The solution from washing the cells twice with 1×PBS (−) was also collected. 800 g was centrifuged at 4° C. for 5 minutes. The supernatant was discarded to obtain precipitates. The washed cells were supplemented with a protein extraction buffer (RIPA; 50 mM Tris-HCl (pH 7.4), 150 mM NaCl, 1 mM EDTA, 0.1% SDS, 0.5% DOC, 1% NP-40) on ice to extract proteins. The precipitates from centrifuging the free and dead cells were also subsequently suspended together for extraction. The collected solution was pulverized three times for 30 seconds in cold water with a sonication device (BIORUPTOR, TOSHO DENKI) and centrifuged for 10 min at 4° C. at 15000 rpm to collect the supernatant of proteins.
8 μg of the extracted protein was separated by SDS-PAGE and transferred onto a nitrocellulose membrane. A rabbit anti-caspase 3 antibody (Cell Signaling, 9662), rabbit anti-PARP antibody (Cell Signaling, 9542), and mouse anti-GAPDH antibody (MBL, M171-3) were used as the primary antibodies. A peroxidase-labeled anti-rabbit antibody and anti-mouse antibody (GE Healthcare Biosciences, NA934V, NA931V) were used as the secondary antibodies. For the primary antibodies, rabbit anti-caspase 3 antibody and rabbit anti-PARP antibody: 1000-fold dilution and mouse anti-GAPDH antibody: 3000-fold dilution, while the secondary antibody was diluted 5000-fold. Chemi Lumi ONE Ultra (nacalai tesque, 11644-40) was used for detection. The detected band strength was analyzed with a lumino image analyzer LAS-4000 mini (Fuji Film) and ImageQuant™ software (GE Healthcare).

[5] = test system: rabbit cornea; assay: Cornea preservation using rabbit cornea in Optisol-GS (Example 11); type: cell-based; details: 2 weeks of preservation at 4° C., 10 μM in Optisol-GS
Protocol: Rabbit eye balls after 0 to 24 hours from euthanasia were used in the experiment. Under a stereoscopic microscope, the sclera was excised using spring scissors along the corneal limbus, and the lens and iris were removed to prepare a sclerocornea fragment. The sclerocornea fragment was divided into two pieces as the control group and emricasan supplemented groups. After dividing the cornea, the control group was left standing in DMSO supplemented Optisol-GS® (Bausch & Lomb) and the caspase inhibitor supplemented groups were left standing in Optisol-GS® supplemented with emricasan for 2 weeks at 4° C.
After washing the sclerocornea fragment with PBS (−), the fragment was immobilized with 4% formaldehyde for 10 minutes at room temperature (RT) and incubated for 60 minutes with 1% bovine serum albumin (BSA). Antibodies to N-cadherin (BD Bioscience) and ZO-1 (Zymed Laboratories) were used at 1:300 dilution. For secondary antibodies, Alexa Fluor® 488 labeled goat anti-mouse IgG (Life Technologies, A11009) was used at a dilution of 1:1000. A 1:400 dilution of phalloidin (Life Technologies) 546 was used for actin staining. […] Fluorescence was observed using a confocal microscope (TCS SP2 AOBS; Leica Microsystems, Wetzlar Germany). Cells found to have actin contractile rings under a fluorescence microscope were counted to measure the ratio.

Compound	programmed cell death [1]	expression / overexpression of fibronectin [2]	phosphorylated Smad2 (p-Smad2) [3]	inactive form cleaved caspase 3 of about 19 kDa ([4]; addition of 1 and 3 μM)	active form cleaved caspase 3 of about 17 kDa ([4]; all tested concentrations)	inactive form cleaved caspase 3 of about 19 kDa ([4]; other concentrations (10, 30, 100 μM))	actin contractile rings [5]	cell damage [5]	effect of suppressing caspase 3 ([4]; concentration of 100 μM)
NC(=O)c1ccc(-c2nc(-c3ccc4c(c3)OCO4)c(-c3ccccn3)[nH]2)cc1 [SB431542]	suppressed	suppressed	not found	–	–	–	–	–	–
C[C@H](NC(=O)C(=O)Nc1ccccc1C(C)(C)C)C(=O)N[C@@H](CC(=O)O)C(=O)COc1c(F)c(F)cc(F)c1F [emricasan, 3-[2-[(2-tert-butyl-phenylaminooxalyl)-amino]-propionylamino]-4-oxo-5-(2,3,5,6-tetrafluoro-phenoxy)-pentanoic acid]	–	suppressed	found	hardly observed	not observed	not observed	significantly suppressed	hardly any cell damage	–
CC(C)[C@@]1(C(=O)N[C@H]2CC(=O)O[C@]2(O)CF)CC(c2nccc3ccccc23)=NO1 [nivocasan, (R)—N-((2S,3S)-2-(fluoromethyl)-2-hydroxy-5-oxotetrahydrofuran-3-yl)-5-isopropyl-1-3-(isoquinoline-1-yl)-4,5-dihydroisoxazole-5-carboxamide]	–	–	–	–	–	–	–	–	observed
